Measurements reported in patent US20240317718A1, “SUBSTITUTED HETEROCYCLIC COMPOUNDS” (BRISTOL-MYERS SQUIBB COMPANY, priority 2021, published 2024).

Tested on: Caco-2 cells
Details: human, Caco-2, 2 h, 3 μM, pH 7.4

SMILES | CACO2 (A-B) [nm/s]
[2H]C([2H])([2H])NC(=O)c1nnc(NC(=O)C2CC2)cc1Nc1cccc(-c2noc(CCOC)n2)c1OC [Example 4, 6-cyclopropaneamido-4-({2-methoxy-3-[5-(2-methoxyethyl)-1,2,4-oxadiazol-3-yl]phenyl}amino)-N-(^2H3)methylpyridazine-3-carboxamide] | 591
[2H]C([2H])([2H])NC(=O)c1nnc(NC(=O)C2CC2)cc1Nc1cccc(-c2cnc(C3CC3)cn2)c1OC [Example 11, 6-cyclopropaneamido-4-{[3-(5-cyclopropylpyrazin-2-yl)-2-methoxyphenyl]amino}-N-(^2H3)methylpyridazine-3-carboxamide] | 270
[2H]C([2H])([2H])NC(=O)c1nnc(NC(=O)C2CC2)cc1Nc1cccc(-c2noc(COCC)n2)c1OC [Example 3, 6-cyclopropaneamido-4-({3-[5-(ethoxymethyl)-1,2,4-oxadiazol-3-yl]-2-methoxyphenyl}amino)-N-(^2H3)methylpyridazine-3-carboxamide] | 553
[2H]C([2H])([2H])NC(=O)c1nnc(NC(=O)C2CC2)cc1Nc1cccc(-c2cnc([N+](=O)[O-])cn2)c1OC [Example 12, 6-cyclopropaneamido-4-{[2-methoxy-3-(5-nitropyrazin-2-yl)phenyl]amino}-N-(^2H3)methylpyridazine-3-carboxamide] | 16
[2H]C([2H])([2H])NC(=O)c1nnc(NC(=O)C2CC2)cc1Nc1cccc(-c2ncns2)c1OC [Example 9, 6-cyclopropaneamido-4-{[2-methoxy-3-(1,2,4-thiadiazol-5-yl)phenyl]amino}-N-(^2H3)methylpyridazine-3-carboxamide] | 499
[2H]C([2H])([2H])NC(=O)c1nnc(NC(=O)C2CC2)cc1Nc1cccc(-c2cnc(F)cn2)c1OC [Example 10, 6-cyclopropaneamido-4-{[3-(5-fluoropyrazin-2-yl)-2-methoxyphenyl]amino}-N-(^2H3)methylpyridazine-3-carboxamide] | 513
[2H]C([2H])([2H])NC(=O)c1nnc(NC(=O)C2CC2)cc1Nc1cccc(-c2nc(C)ns2)c1OC [Example 13, 6-cyclopropaneamido-4-{[2-methoxy-3-(3-methyl-1,2,4-thiadiazol-5-yl)phenyl]amino}-N-(^2H3)methylpyridazine-3-carboxamide] | 211
[2H]C([2H])([2H])NC(=O)c1nnc(NC(=O)C2CC2)cc1Nc1cccc(-c2cc(C)ncn2)c1OC [Example 8, 6-cyclopropaneamido-4-{[2-methoxy-3-(6-methylpyrimidin-4-yl)phenyl]amino}-N-(^2H3)methylpyridazine-3-carboxamide] | 460
